In patent US20200087258A1, “INHIBITOR OF CITRATE TRANSPORTER AND THEIR USE IN THERAPY” (Eternygen GmbH, priority 2017, published 2020):

Key:
[1] = system: Indy; conditions: at 0.1 mM; cited from earlier work
[2] = biological target: T1, GLT-1 (Homo sapiens, UniProt P43004); test: 3H-glutamate uptake counter assay in HEK293 cells overexpressing human GLT-1; type: cell-based
T1 construct: host or cells: HEK293 (virus made in GP293 packaging cells)
Experimental: (§1) The compound was obtained by screening of a library containing more than 50,000 lead-like compounds and fragments. The library was tested using a functional citrate uptake assay with HEK293 cells overexpressing recombinant human INDY. The following hit confirmation was conducted in the same assay system. To confirm the activity of selected compounds on the target INDY another cell assay was conducted. In this assay system citrate uptake was measured using HepG2 cells which endogenously express INDY. Furthermore selectivity of selected compounds was tested for two other transporters in different assay systems. The first transporter was the glutamate transporter GLT-1 tested in a glutamate uptake assays using HEK293 cells overexpressing recombinant human GLT-1. The second transporter was the glucose transporter GLUT1 tested in a glucose uptake assay using Huh-7 cells which endogenously express GLUT1. Compounds were considered to be selective with an at least 5-fold higher activity for INDY than for the other two transporters.
(§2) Cells were maintained in cell medium using cell culture grade flasks (CellSTACK Corning, 500 cm2 dishes or T175 depending on cell number). The selection antibiotic and G418 (800 μg/ml) was added during cultivation but not for seeding into assay plates. For splitting, cells were washed with PBS (w/o Ca2+, Mg2+, phenol red) and detached with Trypsin/EDTA. Throughout cultivation cells were kept sub-confluent. Detached cells (50,000 cells/well) were seeded in 96-well plates (white, clear bottom from Corning #655098) and incubated over night before usage in the assay. The following media were used. For HEK293 cells expressing INDY MEM (PAA)+10% FCS+1×P/S+2 mM L-Gln; for HEK293 cells expressing GLT-1 DMEM (Gibco)+10% FCS+400 µg/ml G418; for Huh7 cells DMEM (Gibco)+10% FCS+2 mM L-Gin (+1×P/S); for HepG2 cells MEM (PAA, Cat # E15-024)+10% FCS+2 mM L-Gin+1×NEAA+1 mM Na-Pyruvat
The following assay buffers for the particular uptake reaction were used. Citrate uptake buffer: 120 mM NaCl, 5.4 mM KCl, 0.8 mM MgSO4, 5 mM glucose, 1.8 mM CaCl2, 25 mM Hepes, 25 mM MES, pH 6.5. Glutamate uptake buffer: HBSS, 1 mM CaCl2, 1 mM MgCl2, 20 mM Hepes pH 7.4. Glucose uptake buffer: 25 mM Hepes+25 mM MES pH 7.4, 120 mM NaCl, 5.4 mM KCl, 1.8 mM CaCl2, 0.8 mM MgSO4.
As a counter assay, Glutamate uptake by the GLT-1 transporter was used. The principle of the assay is to measure the uptake of ^3H labelled glutamate into HEK cells, which overexpress human GLT-1.
The generation of a GLT-1 cell line was performed as follows: human GLT11 isoform sv1 cDNA (Origene # RC223924) was cloned into vector pFB-Neo-CMV-hGLT1 using QIAfilter Plasmid Midi Kit (Qiagen). Virus was generated in GP293 packaging cells (transfection of plasmid with Lipofectamine 2000+OptiMEM). For transfection into HEK cells GP293, supernatant containing virus was passed through a 0.45 micron sterile filter and DEAE-dextran was added at […] final concentration. The solution was used to transfect HEK293 cells at 37° C., 8.5% CO2. After 24 h selection marker G418 at 400 μg/ml was added and cultivation medium performed in DMEM 10% FBS.
The assay was performed in a 96-well format using repeated washing steps, cell lysis and addition of scintillation fluid. Assay buffer was HBSS, 1 mM CaCl2, 1 mM MgCl2, […] pH 7.4. Cells were seeded into white clear-bottom 96-well plates (50,000/well) in the presence of Poly-D-Lysine and incubated at 37° C. for 16-24 hours. Subsequently the plates were washed once with assay buffer using automated washing/LS 405 Selectors, BioTek ending with a buffer volume of 40 μl. Then 5 μl of compound solution in assay buffer was added and incubated for 20 min at 37° C. in cell incubator, HERA cell Heraeus. Afterwards 10 μl of substrate 3H-Glu (3 nM) were added and incubated for another 20 min at 37° C. in cell incubator, HERAcell. Then the plates were washed once with 200 μl cold assay buffer and 150 μl scintillation fluid was added. […]

[3] = biological target: T2, GLUT1 (Homo sapiens, UniProt P11166); test: 3H-glucose uptake counter assay in Huh7 cells endogenously expressing GLUT1; type: cell-based; conditions: endogenous GLUT1
T2 construct: Huh-7 cells which endogenously express GLUT1; endogenous in cells; host or cells: Huh-7
T2 sequence (P11166 1-492): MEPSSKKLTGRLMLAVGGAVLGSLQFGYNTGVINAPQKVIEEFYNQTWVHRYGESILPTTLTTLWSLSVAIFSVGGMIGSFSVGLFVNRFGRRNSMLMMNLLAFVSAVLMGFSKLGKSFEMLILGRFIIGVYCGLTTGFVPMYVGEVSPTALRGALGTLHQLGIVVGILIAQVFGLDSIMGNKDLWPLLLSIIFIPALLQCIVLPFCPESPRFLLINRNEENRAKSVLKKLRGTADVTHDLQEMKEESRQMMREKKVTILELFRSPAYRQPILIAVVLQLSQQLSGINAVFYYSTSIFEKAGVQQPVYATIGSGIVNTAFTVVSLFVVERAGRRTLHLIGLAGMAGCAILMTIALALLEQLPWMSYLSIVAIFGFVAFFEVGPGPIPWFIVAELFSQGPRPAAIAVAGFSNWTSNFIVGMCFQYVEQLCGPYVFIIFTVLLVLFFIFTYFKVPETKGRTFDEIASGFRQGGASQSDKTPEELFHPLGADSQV
Experimental: as §1
as §2, with “Na-Pyruvat […]” for “Na-Pyruvat”
Glucose uptake in Huh7 cells was measured as a counter assay. […] After 20 min incubation at RT plates were measured using TopCount system, Perkin Elmer. […]

[4] = biological target: INDY (Homo sapiens, UniProt Q86YT5); test: 14C-citrate uptake in HepG2 cells endogenously expressing INDY (NaCT); type: cell-based; conditions: endogenous INDY
In short: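 HepG2 cells, which express INDY endogenously, were preincubated with compound for 5 min at 37 °C in pH 6.5 Na+ citrate uptake buffer. 14C-citrate ([…]) was then added for 90 min at 37 °C. After washing and NaOH lysis, uptake was measured by scintillation counting, with 5 mM citrate as positive control.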

Chain of INDY (Q86YT5 whole entry): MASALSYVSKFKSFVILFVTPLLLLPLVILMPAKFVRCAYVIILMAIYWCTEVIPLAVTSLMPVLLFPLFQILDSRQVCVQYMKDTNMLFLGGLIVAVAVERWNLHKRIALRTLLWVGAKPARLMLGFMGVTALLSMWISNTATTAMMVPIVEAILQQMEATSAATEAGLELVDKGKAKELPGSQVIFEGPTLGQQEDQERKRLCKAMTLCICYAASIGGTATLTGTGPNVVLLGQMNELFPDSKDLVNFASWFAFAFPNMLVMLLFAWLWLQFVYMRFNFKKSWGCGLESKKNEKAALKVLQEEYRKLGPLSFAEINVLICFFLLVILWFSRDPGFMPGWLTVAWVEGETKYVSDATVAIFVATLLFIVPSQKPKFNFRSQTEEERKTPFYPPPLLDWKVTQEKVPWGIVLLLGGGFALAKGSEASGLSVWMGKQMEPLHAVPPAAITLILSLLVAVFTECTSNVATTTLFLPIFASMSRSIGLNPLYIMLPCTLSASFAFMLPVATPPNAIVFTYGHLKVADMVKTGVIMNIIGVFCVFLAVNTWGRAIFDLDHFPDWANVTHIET
T1 sequence (P43004 whole entry): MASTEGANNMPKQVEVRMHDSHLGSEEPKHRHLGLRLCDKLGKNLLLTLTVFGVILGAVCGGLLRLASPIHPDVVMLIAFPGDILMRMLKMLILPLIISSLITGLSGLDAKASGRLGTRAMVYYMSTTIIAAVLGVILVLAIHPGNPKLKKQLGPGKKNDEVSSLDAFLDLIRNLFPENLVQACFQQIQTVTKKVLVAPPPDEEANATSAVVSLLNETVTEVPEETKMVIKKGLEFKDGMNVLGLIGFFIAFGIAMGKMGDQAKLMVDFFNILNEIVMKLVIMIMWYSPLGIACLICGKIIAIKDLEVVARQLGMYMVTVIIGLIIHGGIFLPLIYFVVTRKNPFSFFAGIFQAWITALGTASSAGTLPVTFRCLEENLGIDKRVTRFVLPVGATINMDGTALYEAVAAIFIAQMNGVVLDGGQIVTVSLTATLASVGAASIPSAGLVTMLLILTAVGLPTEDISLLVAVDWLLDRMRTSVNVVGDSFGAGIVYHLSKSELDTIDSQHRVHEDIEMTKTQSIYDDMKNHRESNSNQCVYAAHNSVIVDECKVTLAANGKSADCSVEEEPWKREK

| Structure (SMILES) | inhibition of Indy [1] | IC50 [2] [µM] | IC50 [3] [µM] | IC50 [4] [µM] |
| --- | --- | --- | --- | --- |
| O=C(O)CC(O)(C(=O)O)C(O)C(=O)O (stereo not shown) [hydroxycitrate] | 30-40% |  |  |  |
| O=C(NCc1ccccc1F)C1CCN(S(=O)(=O)c2ccccc2)CC1 [Example 6, N-[(2-fluorophenyl)methyl]-1-(benzenesulfonyl) piperidine-4-carboxamide] |  | > 50 | > 50 | 5.7 |
